Laboratory results reported in US20030157715A1, “Modulation of chromosome function by chromatin remodeling agents” (priority 2000, published 2003).
Where “and” joins values, the source holds several entries; their conditions need not be identical. Equal entries are not always repeated.

Tests used:
[1] = biological target: W9 probe (tandem repeats of an oligonucleotide with a 9 bp AT-tract); test: DNase I footprinting on probe W9; assay type: binding
Source text: DNase I cleavage pattern in the presence of P9 and P7. Ligand concentrations are indicated at the top of each lane. The position of each of the AT-tracts is indicated by square brackets. […] This probe is composed of head-to-tail tandem repeats of an oligonucleotide with a 9 bp AT-tract.
(§1) Synthetic oligonucleotides […] and […] were hybridized to obtain the W9 probe, oligomerized by ligation and digested with BamHI and BglII to obtain different tandem repeats. The following oligonucleotides were prepared identically: GAF31 is composed of the oligonucleotides […] and […] and, BrownI of oligonucleotides […] and […]. Fragments were purified on low-melt agarose gels and then cloned into a modified pSP64 vector, cut by BamHI and BglII. End-labeling was carried out following digestion with HindIII and a fill-in reaction with Klenow DNA polymerase. The labeled plasmid was cut with PvuII and the target fragments purified from low-melting agarose gels. The 657 bp EcoR1/Hinf1 fragment of the Drosophila histone SAR was cloned into the SmaI site of the modified pSP64 plasmid. This SAR probe was end-labeled following-digestion with EcoR1, then cut with ClaI and the resulting 347 bp fragment purified from low-melting agarose gels.
(§2) All reactions were performed in a total volume of 40 μl. A polyamide stock solution or buffer (for reference lanes) was added to an assay buffer containing 20 kcpm radiolabeled DNA, affording final concentrations of 10 mM Tris-HCl (pH 7.4), 10 mM KCl, 10 MM MgCl, 5 mM CaCl2, 0.5 mM EDTA, 0.5 mM EGTA, 1 mM DTT and 0.1% digitonine. The solutions were allowed to equilibrate for at least 2 h at room temperature. Footprinting reactions were initiated by the addition of 2 μl of a DNase stock solution (containing −100 μg DNase I in buffer) and allowed to proceed for 2 min at room temperature. The reactions were stopped by addition of 10 μl of a solution containing 1.25 M NaCl, 100 mM EDTA. Next, 5 μl of a 1% SDS solution was added, followed by 2 μl of a solution containing 1 μg poly(dA-dT), 1 μg salmon sperm DNA and 10 μg glycogen and the DNA was ethanol precipitated (20 min at −20 C.). The reactions were resuspended in 4 μl of 80% formamide loading buffer, denatured 10 min at 85 C., cooled on ice and electrophoresed on 8% polyacrylamide denaturing gels (5% cross-link, 8 M urea) at 30 W for 1 h. The gels were dried and exposed o/n at −70 C.

Drosophila histone SAR = test: DNase I footprinting on SAR probe; assay type: binding
Procedure: as §1, §2

[2] = tested on: variegating white reporter transgene flies (C3/2L, BL2/Y); test: P9 fed to flies with variegating white reporter transgene; assay type: in vivo, Drosophila melanogaster; conditions: transgene at the basis of chromosome 2L; data not shown
Source text: Although we favor the possibility that P9 and MATH20 reduce the spreading of heterochromatin toward w^m4 through long-range effects, we cannot completely rule out the possibility that a local binding site near the white gene (a local SAR) is involved. We attempted to address this issue by studying the effect of P9 on two different variegating miniwhite reporter genes called C3/2L and BL2/Y (Lu et al., 1996; Wallrath and Elgin, 1995). […] Nevertheless, we consider a local-acting mode less likely; the enormous target size of satellite III, 11 Mb versus 0.5 kb for a typical SAR, favors a long-range spreading model.

[3] = tested on: GAF binding site from the Ubx promoter; test: DNase I footprinting on Ubx GAF binding site (GAF31 probe); set-up: species or system Drosophila melanogaster; conditions: same probe as bw^D repeats
Source text: A footprint experiment was therefore carried out with this protein. The DNA probe (GAF31) used for this purpose contains besides the (AAGAG)2 motif (the target of P31) a typical promoter proximal GAF binding site derived from the Ubx gene (Biggin et al., 1988). This Ubx site contains the pentameric consensus sequence GAGAG of GAF (Omichinski et al., 1997). […] Selective Staining of GAGAA Satellite V in Nuclei and Polytene Chromosomes:
Synthetic oligonucleotides […] and […] were hybridized to obtain the W9 probe, oligomerized by ligation and digested with BamHI and BglII to obtain different tandem repeats. The following oligonucleotides were prepared identically: GAF31 is composed of the oligonucleotides […] and […] and, BrownI of oligonucleotides […] and […]. Fragments were purified on low-melt agarose gels and then cloned into a modified pSP64 vector, cut by BamHI and BglII. End-labeling was carried out following digestion with HindIII and a fill-in reaction with Klenow DNA polymerase. The labeled plasmid was cut with PvuII and the target fragments purified from low-melting agarose gels. The 657 bp EcoR1/Hinf1 fragment of the Drosophila histone SAR was cloned into the SmaI site of the modified pSP64 plasmid. This SAR probe was end-labeled following-digestion with EcoR1, then cut with ClaI and the resulting 347 bp fragment purified from low-melting agarose gels. […]

CACAA repeats = test: DNase I footprinting on CACAA repeats (Brown I probe); assay type: binding
Source text: A drawback of this binding model, as opposed to conventional 2:1 drug to DNA complexes, is that P31 is expected to bind degenerate GC and CG base pairs, albeit with different affinity. The consensus sequence can thus be defined as SWSWWSWSWW, where S stands for a G or C and W for A or T. To evaluate binding of P31 to CACAA repeats, we used a second probe that contains two of these repeats as well as five tandem GAGAA repeats. […] Again, it is observed than this molecule binds as a 1:1 drug to DNA complex in an orientation as indicated by arrowheads (FIG. 3A). We propose that special structural features of AT-tracts and GAGAA repeats might favor 1:1 DNA to drug complexes.
as §1, with “The 657 bp EcoR1/Hinf1 fragment of the Drosophila histone SAR was cloned into the SmaI site of the modified pSP64 plasmid. This SAR probe was end-labeled following-digestion with EcoR1, then cut with ClaI and the resulting 347 bp fragment purified from low-melting agarose gels.” left out

Ubx^1/+ flies = test: P31 fed to developing Ubx^1/+ flies; assay type: in vivo, Drosophila melanogaster
Source text: P31 enhances haltere-to-wing transformation in heterozygous bw^D/bw; Ubx^1/+ flies: The GAGA factor is know to bind to the promoter of Ubx and to stimulate its transcription in vitro (Biggin and Tjian, 1988) The Trl locus also genetically interacts with Ubx, since Trl^13C dominantly enhances the segmental transformation observed in Ubx heterozygotes. […] We asked, does P31 also chemically mimic the genetic interaction of Ubx and Trl^13C? To address this issue, we fed P31 to two genotypes, +/+; Ubx/+ and bw^D/bw^D; Ubx^1/+. The latter genotype was obtained by crossing bw^D/bw^D; st/st females and bw^D/bw^D Ubx^1/Tm3, sb males.
The lethality of the progenies was calculated by counting the dead bodies and the total empty pupal shells. The A6 to A5 transformation was detected by bristles that form on abdominal segment A6 on males. All male adult flies obtained (˜50) were scored. Sex combs and halteres were individually inspected and photographed under the microscope (Axiophot, Zeiss) after dissecting at least 30 individuals and incubating them into 30 μl of 0.6 g/ml gum arabic; 4 g/ml chlorohydrate; 35% glycerol under a 24×24 mm coverslip as described (Ashburner, 1989). Since raising double heterozygous flies (Ubx^1/+; bw^D/+) led to lethality, we morphologically dissected eight late stage pupae after carefully removing the pupal envelope.

[4] = tested on: homozygous bw^D/bw^D flies; test: P31 fed to developing homozygous brown-dominant flies; assay type: in vivo; conditions: 40 homozygous bw^D males

| SMILES | affinity for AT-tracts of 9 Ws (in words) [1] | better affinity for W9 than P7 ([1]; P9 versus P7, footprints on W9) [fold] | Kd ([1]; apparent binding affinity, DNase I footprinting, probe W9, read-out: Kdapp W9) | Ratio (Drosophila histone SAR; Kdapp W9 / Kdapp SAR (SAR specificity factor)) | Kd (Drosophila histone SAR; apparent binding affinity, DNase I footprinting, SAR probe, read-out: Kdapp SAR) [nM] | suppression of PEV of a variegating white reporter transgene [2] | ligand concentration up to which no binding is noted at the Ubx GAF site [3] [nM] | affinity for CACAA repeats relative to GAGAA repeats (CACAA repeats) | A6 to A5 (Ubx^1/+ flies; fly stock Ubx^1/+) [%] | Lethality (Ubx^1/+ flies; fly stock Ubx^1/+) [%] | Sex comb (mean) (Ubx^1/+ flies; fly stock Ubx^1/+) | Sex comb, range of teeth (Ubx^1/+ flies; fly stock Ubx^1/+) | alteration of phenotype (in words) (Ubx^1/+ flies; progeny of Ubx^1/+ flies) | mean number of bristles on A6 [4] |
| --- | --- | --- | --- | --- | --- | --- | --- | --- | --- | --- | --- | --- | --- | --- |
| CN(C)CCCNC(=O)CCNC(=O)c1cc(NC(=O)c2cc(NC(=O)c3cc(NC(=O)CCNC(=O)c4cc(NC(=O)c5cc(NC(=O)c6cccn6C)cn5C)cn4C)cn3C)cn2C)cn1C [Compound P9, PyPyPy-β-PyPyPy-β-Dp] | subnanomolar affinity | 100 | ~0.75 nM and 0.75 nM | 1.4 | 0.55 | did not suppress PEV |  |  |  |  |  |  |  |  |
| CN(C)CCCNC(=O)CCNC(=O)c1nc(NC(=O)CCNC(=O)c2nc(NC(=O)CCNC(=O)c3cc(NC(=O)c4nc(NC(=O)CCNC(=O)c5nccn5C)cn4C)cn3C)cn2C)cn1C [Compound P31, Im-β-Im-Py-β-Im-β-Im-β-Dp] |  |  |  |  |  |  | > 25 | approximately five fold lower affinity | 0 | 10 | 10.3 | 8-12 | no altered phenotype | 6 |
